For series [1], the system named is paddy rice (variety: Nipponbare). The experiment in a line: Test for safening effect against phytotoxicity of herbicidal compounds against paddy rice. The format is in vivo. The method, then: (§1) Test results were evaluated by Colby's equation. Colby's equation: [formula]
Test Example 2: Test for Safening Effect against Phytotoxicity of Herbicidal Compounds against Paddy Rice (Method)
Two seedlings of paddy rice (variety: Nipponbare) of 2.5 leaf stage were transplanted in a plastic pot under submerged conditions with a trnsplantation depth of 0 cm. A diluted solution with the prescribed concentration of the 4% granules of the compound No. I-1 and herbicidal compounds were applied on the water surface. Three weeks after the application the degree of phytotoxicity was observed and evaluated in 0-100%.
100%=Complete withering state

In series [2] the test system is wheat (variety: Norin No.61). In words: Test for safening effect against phytotoxicity of herbicidal compounds against wheat. Type of series: in vivo. To be noted: for Phytotoxicity %: wheat seeds in dish, after 5 days; for Expected value E by Colby's equation (Phytotoxicity %): wheat. The method, then: Preparation of Test Solution
Carrier: Acetone 5 parts by weight
Surfactant: Benzyloxy polyglycol ether 1 part by weight
A prescribed amount of the test solution is prepared by diluting with water the formulation obtained by mixing the above-mentioned carrier and surfactant with 1 part by weight of the active compounds (safeners and herbicidal compounds).
Test Example 1: Test for Safening Effect against Phytotoxicity of Herbicidal Compounds against Wheat
Seeds of wheat (variety: Norin No.61) were sown on absorbent cotton in a dish, containing the previously prepared, diluted solution with the prescribed concentration of the test compounds, and grown in a climate chamber. After 5 days the degree of phytotoxicity, particularly bleaching state, was observed and evaluated in 0-100%.
100% =Complete bleaching or withering state
as §1
E: Expected value of phytotoxicity by mixing
X: Measured value of phytotoxicity by one active compound • Y: Measured value of phytotoxicity by the other active compound Table 1

Where [3] appears, read: safener 10 ppm alone (H-1 0 ppm), 0% = no phytotoxicity, 100% = complete bleaching or withering.
[4] abbreviates: safener 50 ppm alone (H-1 0 ppm).

Results on ten compounds are retold here after patent publication US20070010397A1, “Safeners and their application” (priority 2003, published 2007).

Take `COC(=O)c1ccccc1CS(=O)(=O)NC(=O)Nc1nc(OC)cc(OC)n1` [H-2, Bensuiliron-methyl]: the “Phytotoxicity %” value in series [1] (in vivo) came out at 40%.
Regarding `CN(C)CNC(=O)c1snc(Cl)c1Cl` [No. I-3], the Phytotoxicity % in series [2] (safener 10 ppm + H-1 10 ppm) is on record as 5%; in series [2] (setting [3]), 0%; in series [2] (safener 50 ppm + H-1 10 ppm), 0%; in series [2] (setting [4]) it was 0%. In addition, the “Expected value E by Colby's equation (Phytotoxicity %)” value (shortened to “Expected value E … (Phytotoxicity %)”) in series [2] (safener 10 ppm + H-1 10 ppm) and in series [2] (safener 50 ppm + H-1 10 ppm) was 50% throughout.
Regarding `Cc1ccc(NC(=O)c2snc(Cl)c2Cl)c(C)c1` [No. I-2], the Phytotoxicity % in series [2] (safener 10 ppm + H-1 10 ppm) is on record as 30%; in series [2] (setting [3]) it was 0%; in series [2] (safener 50 ppm + H-1 10 ppm) it was 10%; in series [2] (setting [4]), 0%. Moreover, the “Expected value E … (Phytotoxicity %)” value in series [2] (safener 10 ppm + H-1 10 ppm) and in series [2] (safener 50 ppm + H-1 10 ppm) was 50% each time.
Regarding `N#Cc1ccccc1NC(=O)c1snc(Cl)c1Cl` [No. I-1], the “Phytotoxicity %” value stood at 0% in series [1] (paddy rice 2.5 leaf stage, three weeks after application, No. I-1 (4% granules) 1 kg/ha alone, herbicide 0 kg/ha); 20% in series [2] (safener 10 ppm + H-1 10 ppm); 0% in series [2] (setting [3]); 20% in series [2] (safener 50 ppm + H-1 10 ppm); 0% in series [2] (setting [4]). Besides, the “Expected value E … (Phytotoxicity %)” value in series [2] (safener 10 ppm + H-1 10 ppm) and in series [2] (safener 50 ppm + H-1 10 ppm) was 50% each time.
As to `CCC(CC)c1ccc(NC(=O)c2snc(Cl)c2Cl)cc1` [No. I-5], the Phytotoxicity % in series [2] (safener 10 ppm + H-1 10 ppm) was 30%; in series [2] (setting [3]), 0%; in series [2] (safener 50 ppm + H-1 10 ppm), 10%; in series [2] (setting [4]), 0%. The “Expected value E … (Phytotoxicity %)” value in series [2] (safener 10 ppm + H-1 10 ppm) and in series [2] (safener 50 ppm + H-1 10 ppm) was 50% throughout.
Consider `CCN(CC)Cc1ccc(CNC(=O)c2snc(Cl)c2Cl)cc1` [No. I-6], for which the Phytotoxicity % in series [2] (safener 10 ppm + H-1 10 ppm) was 15%; in series [2] (setting [3]) it was 0%; in series [2] (safener 50 ppm + H-1 10 ppm), 15%; in series [2] (setting [4]) it was 0%. The “Expected value E … (Phytotoxicity %)” value in series [2] (safener 10 ppm + H-1 10 ppm) and in series [2] (safener 50 ppm + H-1 10 ppm) was 50% in each case.
In the case of `CCC(C)c1ccc(NC(=O)c2snc(Cl)c2Cl)cc1` (stereo not drawn) [No. I-4], the Phytotoxicity % in series [2] (safener 10 ppm + H-1 10 ppm) stood at 10%; in series [2] (setting [3]), 0%; in series [2] (safener 50 ppm + H-1 10 ppm) it was 5%; in series [2] (setting [4]), 0%. In addition, the “Expected value E … (Phytotoxicity %)” value in series [2] (safener 10 ppm + H-1 10 ppm) and in series [2] (safener 50 ppm + H-1 10 ppm) was 50% throughout.
For the compound `CCOC(=O)[C@@H](C)Oc1ccc(Oc2nc3ccc(Cl)cc3o2)cc1` [H-3, Fenoxaprop-P-ethyl], the “Phytotoxicity %” value is reported as 40% in series [1] (paddy rice, three weeks after application, H-3 0.1 kg/ha + No. I-1 1 kg/ha) and 70% in series [1] (paddy rice, three weeks after application, H-3 0.1 kg/ha alone (No. I-1 0 kg/ha)). In addition, the “Expected value E … (Phytotoxicity %)” value in series [1] (paddy rice, H-3 0.1 kg/ha + No. I-1 1 kg/ha) is 70%.
`CC(C)(C)CSCc1ccc(NC(=O)c2snc(Cl)c2Cl)cc1` [No. I-7]: the Phytotoxicity % in series [2] (safener 10 ppm + H-1 10 ppm) amounted to 30%; in series [2] (setting [3]), 0%; in series [2] (safener 50 ppm + H-1 10 ppm), 20%; in series [2] (setting [4]) it was 0%. Further, the “Expected value E … (Phytotoxicity %)” value in series [2] (safener 10 ppm + H-1 10 ppm) and in series [2] (safener 50 ppm + H-1 10 ppm) was 50% in each case.
For the compound `CS(=O)(=O)c1ccc(C(=O)C2=C(O)CCCC2=O)c(Cl)c1COCC1CCCO1` (stereo not drawn) [H-1], the “Phytotoxicity %” value in series [1] (paddy rice, three weeks after application, H-1 0.6 kg/ha + No. I-1 1 kg/ha) stood at 10%; in series [1] (paddy rice, three weeks after application, H-1 0.6 kg/ha alone (No. I-1 0 kg/ha)), 30%; in series [2] (H-1 10 ppm alone (safener 0 ppm)) it was 50%. For the same compound, the “Expected value E … (Phytotoxicity %)” value in series [1] (paddy rice, H-1 0.6 kg/ha + No. I-1 1 kg/ha) is reported as 30%.
